Structures can show the parent of a compound that is named as a salt.
Assays:
EO771 tumors [1] = test: Pimonidazole staining, hypoxic fraction of EO771 tumors; assay type: in vivo, mice; conditions: orthotopic EO771, immune-competent mice, 2 mg per kg
Procedure: (§1) P values were calculated against thigh muscle with two-tailed two-sample t test. FIG. 3B-3C show normalized tissue oxygenation in EO771 (b) or A549 (c) tumor-bearing mice after injection of 2 mg/kg PPV or vehicle saline (readings taken every minute, and curve is average of 5 traces). P value was analyzed by linear mixed model with autoregressive correlation structure at T=30-40 minutes. […] Values are mean area covered by pimonidazole-positive cells evaluated from 20 images per animal+−SEM. P value was calculated with two-tailed two-sample t test. […] Curves represent mean tumor volumes+−SEM. P values were calculated against XRT with two-tailed two-sample t test.
(§2) Bar graphs represent the mean area covered by pimonidazole-positive cells evaluated from 20 images per animal+−standard error of the mean. P value was calculated against control with two-tailed two-sample t test. […] Mean volumes+−SEM. P values were calculated against XRT with two-tailed two-sample t test. *P<0.05; **P<0.01; ***P<0.001; ****P<0.0001; n.s., not significant.
Pimonidazole staining. […] […] […] The hypoxic fraction of each tumor was quantified by thresholding signal at 50% of the maximum signal on control sections. Area covered by pimonidazole-positive cells was evaluated from 20 images per animal and averaged. Error bars represent the standard deviation.

mitochondrial complex 1 = test: Seahorse OCR inhibition of PPV derivatives, normalized to PPV; assay type: cell-based
Procedure: (§3) FIGS. 7A-7D show OCR and cellular toxicity data. […]. Bars represent mean OCR and PDE10 inhibitory activities from at least 5 (OCR) or 3 (PDE) replicates. All experiments were repeated at least twice. […] Values are mean+−SEM.
(§4) Seahorse analysis of the OCR. Oxygen consumption rate (OCR) was measured using Seahorse XF96 Flux Analyzer (Agilent Technologies). The cells were seeded to attach overnight, wells were washed with pre-warmed XF Calibrant (Agilent Technologies) and the replaced with unbuffered Assay Medium (pH 7.4, 5 mM glucose, 1 mM L-glutamine). The plates were incubated at 37° C. in a CO2-free incubator for 2 hours prior to assay. For succinate rescue assay, cells were permeabilized using XF Plasma Membrane Permeabilizer Reagent (XF PMP, Agilent Technologies) according to the manufacturer's instructions. The OCR rate was measured in 1× Mitochondrial Assay Solution (MAS) (70 mM sucrose, 220 mM mannitol, 10 mM KH2PO4, 5 mM MgCl2, 2 mM Hepes, 0.6% (w/v) fatty acid-free BSA and 1 mM EGTA; pH 7.4). After baseline oxygenation was established, 1 μM rotenone or 10 μM PPV was injected at time A, followed by 5 mM succinate at time B. Error bars represent standard deviation. For the washout experiment, EO771 cells were seeded overnight, then treated with 10 μM PPV or 1 μM rotenone 3 hours prior to OCR measurement. Media was replaced 1 and 2 hours before measurement and OCR reported.
Because PPV's effect on mitochondrial function is independent of cAMP levels it was reasoned that there are two activities in PPV, one inhibiting complex 1 and one inhibiting PDE10A that may reside in different parts of the molecule. The structure activity relationship of PPV relative to two assays was assessed: inhibition of cellular OCR by Seahorse, and inhibition of PDE10A by purified enzyme activity in multiwell plate (PDE10A activity assay kit, BPS Bioscience). Because PPV can compete with rotenone as complex 1 inhibitors, it was reasoned that they may be binding the same site and therefore the structures would be similar relative to the mitochondrial binding target. […] Because the top was a planar structure similar to that of rotenone, and they compete with each other for the same binding pocket on complex 1 (FIG. 10) the lower portion of the molecule and how it may resemble rotenone were investigated in more detail. It was established that flexible linkage was preferred for mitochondrial activity and bulky adducts to the lower benzene ring may block it (FIG. 7C). […] These lead compounds were synthesized from commercial precursors and purified on silica gel column. Structures were confirmed by ^1H NMR and found to be >95% pure by HPLC.

A549 cells = test: Seahorse OCR in A549 cells (dose response, IC50, washout); assay type: cell-based, Human; conditions: Homo sapiens; A549 cells by Seahorse, n=5 replicates; read-out: mitochondrial IC50 (OCR IC50)
[2] = Cellular toxicity of PPV derivatives by trypan blue; assay type: cell-based; conditions: 10 uM, 72 h
Procedure: as §3
Experimental: Cell lines. All cell lines were purchased from the American Type Culture Collection (ATCC) and grown DMEM (Corning) supplemented with 10% FBS (Seradigm) and 1% Penicillin/Streptomycin (Fisher Bioreagents) at 37° C. in 5% CO2. Cells were treated with inhibitors papaverine hydrochloride (Sigma-Aldrich), rotenone (Sigma-Aldrich), piericidin A (Santa Cruz), capsaicin (Sigma-Aldrich), antimycin A (Sigma-Aldrich) and succinic acid disodium salt (Sigma-Aldrich). Cell viability was assessed by trypan blue exclusion.

EO771 tumors [3] = test: Tumor growth delay of EO771 tumors with radiation (XRT); assay type: in vivo, mice; conditions: heterotopic EO771 flank tumors, nude mice, 2 mg/kg 35 minutes prior to 5 Gy
Procedure: as §1
FIGS. 4A-4G show tumor growth before and after radiosensitization with PPV. FIG. 4A-4B show in vitro radiation survival assessment of A549 cell line treated with 10 μm PPV in normoxia (FIG. 4A) and anoxia (FIG. 4B). […] Values represent averaged colony counts+−standard deviation. […] Values are mean tumor volumes+−SEM. […] Values are mean tumor volumes+−SEM. FIG. 4E-4F show tumor growth delay. When tumors reached 4-fold volume increase, groups receiving no treatment or PPV only (FIG. 4E); and XRT only or PPV followed by XRT (FIG. 4F), tumor weights were compared. Values are mean tumor weights+−SEM (n=8). P values were calculated with two-tailed two-sample t test. FIG. 4G are related to FIG. 4E-4F tumor growth delay. Representative images of orthotopic EO771 tumors harvested on day 11 after treatment with XRT (top) or 2 mg/kg PPV followed by XRT (bottom). *P<0.05; **P<0.01; ***P<0.001; ****P<0.0001; n.s., not significant.
as §2
Tumor Growth kinetics. 2×10^6 EO771 or 5×10^6 A549 cells were injected s.c. into the flanks of 6-week old female immunocompetent C57/B6 (EO771) or immunocompromised nu/nu (A549) mice. Caliper measurements of opposing diameter were used to calculate the tumor volumes. Upon reaching […], the tumors were visualized by cone beam CT and treatment plans calculated using SARRP software. X-rays were delivered with a single beam delivering 5 Gy using the Small Animal Research Radiation Platform (SARRP, Xstrahl). Tumor volumes were measured until the post treatment volume increased 3-fold. Error bars represent standard deviation.
Both models of transplanted tumors that were used for the oxygenation experiments of papaverine's effect on radiation response in vivo were investigated. The murine breast cancer line EO771 that is syngeneic with the BL6 strain of mice was used and transplanted it orthotopically into the mammary fat pad of immune-competent mice. Also used was the human A549 lung adenocarcinoma line that was transplanted into the flank of immune-deficient mice. The breast cancers grew to approximately 150 mm^3 and were then randomized to receive either no treatment, a single dose of either 5 Gy, or papaverine at 2 mg/kg followed 30-40 minutes later by 5 Gy.

PDE10A = target: T1, PDE10A (Homo sapiens, UniProt Q9Y233); test: PDE10A enzymatic assay (PDE10A activity assay kit, BPS Bioscience); assay type: biochemical
T1 construct: purchased BPS Bioscience
T1 sequence (Q9Y233 267-1055): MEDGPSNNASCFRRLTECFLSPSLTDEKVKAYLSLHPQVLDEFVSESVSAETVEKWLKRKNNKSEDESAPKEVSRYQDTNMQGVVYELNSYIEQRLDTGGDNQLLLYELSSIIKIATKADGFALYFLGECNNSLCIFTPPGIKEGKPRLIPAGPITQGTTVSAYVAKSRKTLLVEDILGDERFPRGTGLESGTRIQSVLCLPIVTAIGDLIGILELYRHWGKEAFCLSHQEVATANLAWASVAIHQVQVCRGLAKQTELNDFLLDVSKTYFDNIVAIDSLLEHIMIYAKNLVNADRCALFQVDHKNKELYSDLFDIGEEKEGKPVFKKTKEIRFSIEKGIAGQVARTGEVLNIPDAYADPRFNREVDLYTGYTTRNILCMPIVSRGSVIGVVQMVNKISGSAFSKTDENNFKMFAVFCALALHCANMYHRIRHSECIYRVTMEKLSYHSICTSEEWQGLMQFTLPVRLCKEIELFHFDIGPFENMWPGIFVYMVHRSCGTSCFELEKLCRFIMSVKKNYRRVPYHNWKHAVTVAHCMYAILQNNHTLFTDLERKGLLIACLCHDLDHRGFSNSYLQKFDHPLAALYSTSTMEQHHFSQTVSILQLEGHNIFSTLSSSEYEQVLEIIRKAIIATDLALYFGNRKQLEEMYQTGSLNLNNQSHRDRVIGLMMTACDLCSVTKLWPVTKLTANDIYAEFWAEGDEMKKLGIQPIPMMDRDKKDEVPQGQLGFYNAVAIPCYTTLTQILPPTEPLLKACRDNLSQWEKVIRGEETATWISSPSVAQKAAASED
Procedure: FIGS. 7A-7D show OCR and cellular toxicity data. […] Bars represent mean OCR and PDE10 inhibitory activities from at least 5 (OCR) or 3 (PDE) replicates. All experiments were repeated at least twice. […] Values are mean+−SEM. […]
The structure activity relationship of PPV relative to two assays was assessed: inhibition of cellular OCR by Seahorse, and inhibition of PDE10A by purified enzyme activity in multiwell plate (PDE10A activity assay kit, BPS Bioscience). […] These lead compounds were synthesized from commercial precursors and purified on silica gel column.

Panc1 cells = test: Seahorse OCR in Panc1 cell line; assay type: cell-based, Human; conditions: increasing concentrations (sildenafil citrate 0, 5, 10, 20; 8-Bromo-cAMP 0, 10, 20)
Procedure: FIGS. 7A-7D show OCR and cellular toxicity data. […] Bars represent mean OCR and PDE10 inhibitory activities from at least 5 (OCR) or 3 (PDE) replicates. All experiments were repeated at least twice. […] Values are mean+−SEM.
as §4

In the case of `COc1cc2ccnc(Cc3cc(C)cc(C)c3)c2cc1OC` [SMV-23], the “tumor hypoxia by pimonidazole staining” value (EO771 tumors [1]) is reported as “no effect on hypoxia”, the “Inhibitory activity OCR % of PPV” value (mitochondrial complex 1; Seahorse, OCR inhibition at 10 μM concentration, normalized to PPV) is reported as 20.37 % of PPV and the “complex 1 activity compared to PPV” value (mitochondrial complex 1; compared to PPV) is reported as 20%. For the same molecule, the IC50 (A549 cells) was 94 µM, the “cellular toxicity in vitro” value [2] was “Neither of these compounds shows cellular toxicity” and the “growth delay compared to radiation alone” value (EO771 tumors [3]) was “no increase in growth delay”. The IC20 (PDE10A; PDE10A2 enzymatic assay, n=3 replicates, read-out: PDE IC20 (PDE10A IC20)) was 0.5 µM, the “Inhibitory activity PDE10A % of PPV” value (PDE10A; PDE10A inhibition at 1 μM, normalized to PPV) was 121.49 % of PPV and the “PDE10 activity compared to PPV” value (PDE10A; compared to PPV) was 125%.
For `CCCc1nn(C)c2c(=O)[nH]c(-c3cc(S(=O)(=O)N4CCN(C)CC4)ccc3OCC)nc12` [sildenafil citrate], the “effect on OCR” value (Panc1 cells) was “no effect”.

From patent publication US20210163453A1, “DERIVATIVES OF PAPAVERINE THAT ARE EFFECTIVE HYPOXIC TUMOR RADIOSENSITIZERS” (Ohio State Innovation Foundation, priority 2018, published 2021)
